Usually Ki stands for a dissociation constant, usually derived from enzyme kinetics or from competition with a known ligand. A lower Ki goes with higher affinity.

Each structure is given as a SMILES string.

The target of this assay is Peptidyl-prolyl cis-trans isomerase FKBP1A (Homo sapiens, UniProt P62942). Briefly: Binding affinity towards immunophilin cytosolic protein FK506 binding protein 12 was determined.
Chain of Peptidyl-prolyl cis-trans isomerase FKBP1A (P62942 whole entry): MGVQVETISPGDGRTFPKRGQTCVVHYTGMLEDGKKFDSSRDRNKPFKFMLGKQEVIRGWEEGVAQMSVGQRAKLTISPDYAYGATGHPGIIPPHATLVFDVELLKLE

`CCC[C@H](/C=C(\C)C[C@H](C)C[C@H](OC)[C@H]1O[C@@](O)(C(=O)C(=O)N2CCCC[C@H]2C(=O)O[C@H](/C(C)=C/[C@@H]2CC[C@@H](O)[C@H](OC)C2)C(C)C)[C@H](C)C[C@@H]1OC)C(C)=O` had a Ki of 400 nM.

With `C=CCC(CC=C)C(=O)C[C@H](O)[C@@H](C)[C@H](OC(=O)[C@@H]1CCCCN1C(=O)C(=O)[C@]1(O)O[C@H]([C@H](/C=C\C)OC)CC[C@H]1C)[C@H](C)C[C@@H]1CC[C@@H](O)[C@H](OC)C1`, the Ki is 207 nM.

The values above are taken from ChEMBL document CHEMBL1127921, “Synthesis and study of a non macrocyclic FK506 derivative” (Bioorg Med Chem Lett, 1994).
